{"source": "patent US20190322643A1", "about": "(Georgia State University Research Foundation, Inc., priority 2016, published 2019)", "key": {"HDAC": {"tested_on": "HDAC", "assay": "Cell based homogenous HDAC assay, Hela", "details": "read-out: IC50-HDAC Hela; Hela cells, mean ± SD of triplicate", "method": "After 24 h, 9 μl inhibitors with different concentration were added to the HeLa cells and incubation was continued for 3 h under cell culture conditions. After this treatment period, 10 μl of a 2 mM stock solution of the substrate Boc-K(Ac)-AMC was added into the 96 well plates with Hela cells and inhibitors. […] A549 and K562 cell lines used the same method, respectively. IC50s were calculated using GraphPad Prizm statistical package with sigmoidal variable slope dose response curve fit.\nBoc-K(Ac)-AMC was used as a cell-permeable HDAC substrate, as after deacetylation it is cleaved by trypsin to release the florescent 7-amino-4-methylcoumarin (AMC)."}, "A549": {"tested_on": "A549", "assay": "Cytotoxicity / anti-proliferation assay (CCK-8), A549", "type": "cell-based", "details": "Homo sapiens, 72 h, CCK-8 kit", "procedure": "(§1) Then the cells were exposed to the different inhibitors with various concentrations for 72 h. […] EC50s were calculated using GraphPad Prizm statistical package with sigmoidal variable slope dose response curve fit.\n(§2) Cell anti-proliferation assays were performed to determine the toxicity of these inhibitors. […] These compounds were further evaluated against the control cell line HEK293 to test their toxicity with a non-cancerous cell line."}, "[1]": {"target": "T1, Mouse histone methyltransferase G9a (969-1263) (Mus musculus, UniProt Q9Z148)", "T1 construct": "The 6His-sumo mG9a (969-1263) protein was purified using the following procedure; 6His-sumo (cleaved yes); made in house; host or cells: Escherichia coli BL21 (DE3)", "T1 sequence (Q9Z148 969-1263)": "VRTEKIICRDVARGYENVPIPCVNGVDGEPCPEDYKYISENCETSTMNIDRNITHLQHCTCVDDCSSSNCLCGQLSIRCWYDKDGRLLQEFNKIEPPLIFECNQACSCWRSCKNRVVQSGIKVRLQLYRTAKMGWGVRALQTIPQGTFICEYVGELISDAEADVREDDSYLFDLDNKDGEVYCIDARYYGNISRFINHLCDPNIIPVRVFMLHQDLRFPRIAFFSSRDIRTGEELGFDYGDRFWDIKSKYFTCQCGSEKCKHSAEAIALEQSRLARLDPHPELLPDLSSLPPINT", "assay": "MALDI-TOF methylation study of G9a inhibition", "type": "biochemical", "details": "inhibitors at 5 μM concentration for 30 min"}, "HCT-8": {"tested_on": "HCT-8", "assay": "Cytotoxicity / anti-proliferation assay (CCK-8), HCT-8", "type": "cell-based", "details": "Homo sapiens, 72 h, CCK-8 kit", "procedure": "as §1, §2"}}}
{"compound": "CN1CCCN(c2nc(NC3CCN(Cc4ccccc4)CC3)c3ccc(OCCCCCCC(=O)NO)cc3n2)CC1", "note": "[Compound 30]", "values": [{"measurement": "IC50", "setting": "HDAC", "result": "> 100", "unit": "µM"}, {"measurement": "EC50", "setting": "A549", "result": "> 100", "unit": "µM"}, {"measurement": "inhibition at 5 µM", "setting": "[1]", "result": "17.9 ± 5.51", "unit": "%"}, {"measurement": "EC50", "setting": "HCT-8", "result": "> 100", "unit": "µM"}]}
